According to US9416128B2, “Fused heterocyclic compounds as ion channel modulators” (Gilead Sciences, Inc., priority 2013, dated 2016):

Legend:
hNaV1.2 (SCN2A) = target: T1, hNaV1.2 (SCN2A) (Homo sapiens, UniProt Q99250); assay: Use-dependent inhibition of the CNS NaV1.2 sodium channel; type: cell-based; conditions: HEK-293, % inhibition, 25 Hz; for inhibition at 1 µM: use-dependent block at 1 uM, read-out: Nav1.2 UDB 25 Hz 1 uM; for inhibition at 10 µM: use-dependent block at 10 uM, read-out: Nav1.2 UDB 25 Hz 10 uM
T1 construct: expressed in transfected cells
T1 sequence (Q99250 whole entry): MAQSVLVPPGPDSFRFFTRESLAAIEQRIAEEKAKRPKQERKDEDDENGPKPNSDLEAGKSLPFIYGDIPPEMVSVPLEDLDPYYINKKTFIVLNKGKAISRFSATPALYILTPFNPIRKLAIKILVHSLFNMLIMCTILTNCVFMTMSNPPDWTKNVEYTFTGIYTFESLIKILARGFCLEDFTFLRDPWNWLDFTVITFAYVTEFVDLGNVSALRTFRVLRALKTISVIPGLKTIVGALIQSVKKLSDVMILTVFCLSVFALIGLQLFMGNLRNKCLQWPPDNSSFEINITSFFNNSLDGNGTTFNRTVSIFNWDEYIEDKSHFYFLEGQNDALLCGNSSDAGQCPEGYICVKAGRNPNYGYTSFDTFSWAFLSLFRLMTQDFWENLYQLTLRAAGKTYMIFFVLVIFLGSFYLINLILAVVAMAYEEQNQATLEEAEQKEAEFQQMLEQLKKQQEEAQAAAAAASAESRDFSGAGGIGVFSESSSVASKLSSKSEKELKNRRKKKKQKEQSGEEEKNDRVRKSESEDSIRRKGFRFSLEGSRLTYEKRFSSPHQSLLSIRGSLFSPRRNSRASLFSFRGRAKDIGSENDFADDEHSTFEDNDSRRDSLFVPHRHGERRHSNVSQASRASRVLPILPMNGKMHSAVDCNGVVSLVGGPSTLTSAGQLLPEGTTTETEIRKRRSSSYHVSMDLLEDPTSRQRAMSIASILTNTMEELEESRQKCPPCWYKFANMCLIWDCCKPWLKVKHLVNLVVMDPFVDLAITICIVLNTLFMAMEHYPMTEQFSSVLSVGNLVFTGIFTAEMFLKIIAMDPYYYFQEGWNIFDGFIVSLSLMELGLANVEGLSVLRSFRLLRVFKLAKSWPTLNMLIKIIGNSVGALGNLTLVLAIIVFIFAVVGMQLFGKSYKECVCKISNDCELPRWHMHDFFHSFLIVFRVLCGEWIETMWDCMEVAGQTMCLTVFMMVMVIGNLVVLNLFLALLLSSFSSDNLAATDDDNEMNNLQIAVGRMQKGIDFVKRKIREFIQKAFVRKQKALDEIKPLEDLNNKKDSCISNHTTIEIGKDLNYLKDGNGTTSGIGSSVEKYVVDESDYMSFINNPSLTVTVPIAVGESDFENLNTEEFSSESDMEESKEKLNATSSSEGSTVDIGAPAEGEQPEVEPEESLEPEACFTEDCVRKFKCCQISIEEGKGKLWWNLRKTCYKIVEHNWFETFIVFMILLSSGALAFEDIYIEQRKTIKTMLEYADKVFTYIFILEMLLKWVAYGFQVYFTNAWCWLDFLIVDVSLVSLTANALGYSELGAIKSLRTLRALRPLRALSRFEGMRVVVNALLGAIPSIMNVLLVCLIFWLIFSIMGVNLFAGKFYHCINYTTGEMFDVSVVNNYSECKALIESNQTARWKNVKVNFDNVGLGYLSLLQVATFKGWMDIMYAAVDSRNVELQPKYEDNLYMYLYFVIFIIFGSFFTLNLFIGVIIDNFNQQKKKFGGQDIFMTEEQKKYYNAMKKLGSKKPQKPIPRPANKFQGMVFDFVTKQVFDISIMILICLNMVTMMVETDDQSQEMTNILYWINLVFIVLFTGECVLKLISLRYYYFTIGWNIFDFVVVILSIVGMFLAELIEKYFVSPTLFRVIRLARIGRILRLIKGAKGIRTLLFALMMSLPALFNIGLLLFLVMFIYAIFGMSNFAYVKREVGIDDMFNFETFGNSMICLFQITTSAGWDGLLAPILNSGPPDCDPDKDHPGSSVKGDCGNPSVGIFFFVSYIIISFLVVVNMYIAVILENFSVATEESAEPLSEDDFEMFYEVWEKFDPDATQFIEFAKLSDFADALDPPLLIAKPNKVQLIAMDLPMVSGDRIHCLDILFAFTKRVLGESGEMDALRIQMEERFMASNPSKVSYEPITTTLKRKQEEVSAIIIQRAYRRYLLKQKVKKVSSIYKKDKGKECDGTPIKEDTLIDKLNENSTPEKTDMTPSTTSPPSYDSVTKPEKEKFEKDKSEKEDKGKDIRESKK
T1 sequence (Q07699 19-218 partner): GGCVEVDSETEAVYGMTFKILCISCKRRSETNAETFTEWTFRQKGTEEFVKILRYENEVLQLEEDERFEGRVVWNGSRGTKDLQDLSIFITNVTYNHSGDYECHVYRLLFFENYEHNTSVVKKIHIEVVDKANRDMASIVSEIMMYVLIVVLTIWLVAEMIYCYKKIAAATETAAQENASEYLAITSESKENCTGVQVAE
T1 sequence (O60939 30-215 partner): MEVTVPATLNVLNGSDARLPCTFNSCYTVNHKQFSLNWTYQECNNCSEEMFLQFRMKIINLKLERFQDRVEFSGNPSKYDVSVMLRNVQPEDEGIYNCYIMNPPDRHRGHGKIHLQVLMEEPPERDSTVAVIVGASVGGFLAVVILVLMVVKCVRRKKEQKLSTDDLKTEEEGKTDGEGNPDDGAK
Summary of the method: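 Use-dependent block of human NaV1.2 was recorded by automated whole-cell patch clamp (QPatch) in HEK-293 cells stably expressing hNaV1.2 with beta1 and beta2 subunits. From a −120 mV holding potential, a 25 Hz train of twenty 20 ms pulses to 0 mV was applied. Peak current at pulse 20, normalized to pulse 1, gave percent inhibition versus compound-free conditions at 23-25° C.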

hNaV1.1 (SCN1A) = hNaV1.1 (SCN1A) (Homo sapiens, UniProt P35498); assay: Use-dependent inhibition of the CNS NaV1.1 sodium channel; type: cell-based; conditions: % inhibition, 25 Hz; for inhibition at 1 µM: use-dependent block at 1 uM, read-out: Nav1.1 UDB 25 Hz 1 uM; for inhibition at 10 µM: use-dependent block at 10 uM, read-out: Nav1.1 UDB 25 Hz 10 uM
Summary of the method: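 Whole-cell automated patch clamp on HEK-293 cells stably expressing hNaV1.1, 23-25° C., CsF internal solution. Peak current at pulse 20 of a 25 Hz train (0 mV, 20 ms) from −120 mV, normalized to pulse 1; percentage inhibition versus compound-free condition.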

Structure (SMILES) | inhibition at 1 µM (hNaV1.2 (SCN2A)) [%] | inhibition at 10 µM (hNaV1.2 (SCN2A)) [%] | inhibition at 1 µM (hNaV1.1 (SCN1A)) [%] | inhibition at 10 µM (hNaV1.1 (SCN1A)) [%]
COc1cc(C(F)(F)F)ccc1-c1ccc2c(c1)CN(Cc1ncccn1)C(=O)O2 [Example 34, 6-(2-methoxy-4-(trifluoromethyl)phenyl)-3-(pyrimidin-2-ylmethyl)-3,4-dihydro-2H-benzo[e][1,3]oxazin-2-one] | 38.8 | 78.5 | 26.9 | 76.1
CC(C)Oc1cc(C(F)(F)F)ccc1-c1ccc2c(c1)CN(Cc1ncccn1)C(=O)O2 [Example 25, 6-(2-isopropoxy-4-(trifluoromethyl)phenyl)-3-(pyrimidin-2-ylmethyl)-3,4-dihydro-2H-benzo[e][1,3]oxazin-2-one] | 29.9 | 72.1 | 31.7 | 75.3
